According to patent publication US8791123B2, “Substituted pyrazolo[1,5-a]pyrimidine compounds as Trk kinase inhibitors” (Array Biopharma, Inc., priority 2009, dated 2014):
Like-named read-outs stand apart in the source and are kept apart here.

Assays:
[1] = target: TrkA (histidine-tagged recombinant human TrkA, cytoplasmic domain) (Homo sapiens (Human), UniProt P04629); test: TrkA ELISA Assay; format: biochemical; conditions: Table 1; ELISA, 500 μM ATP; read-out: TrkA Enzyme IC50
Description: An enzyme-linked immunosorbant assay (ELISA) was used to assess TrkA kinase activity in the presence of inhibitors. Immulon 4HBX 384-well microtiter plates (Thermo part #8755) were coated with a 0.025 mg/mL solution of poly (Glu, Ala, Tyr; 6:3:1; Sigma P3899). […] The reaction mixture was removed from the plate by washing with PBS containing 0.1% (v/v) Tween 20. The phosphorylated reaction product was detected using 0.2 μg/mL of a phosphotyrosine specific monoclonal antibody (clone PY20) conjugated to horseradish peroxidase in conjunction with the TMB Peroxidase Substrate System (KPL). After the addition of 1M phosphoric acid, the chromogenic substrate color intensity was quantitated via absorbance at 450 nm.

Human Jak2 kinase domain = Human Jak2 kinase domain (Homo sapiens (Human), UniProt O60674); test: Jak2 Inhibition Assay (Omnia kinase assay); format: biochemical; conditions: for IC50: read-out: Jak2 Enzyme IC50; for Jak2 Enzyme (% inhibition at 1000 nM): 1000 nM test compound
Description: The assays described in Examples C, D, E and F for the determination of JAK1, JAK2, JAK3 and Tyk2 kinase activity, respectively, utilized the Omnia® Kinase fluorescence peptide substrate-based technology (Invitrogen). […] The reactions were therefore read at excitation 360 nm and emission was measured at 485 nm every 50 seconds for 45 minutes using a PerkinElmer EnVision Multilabel Plate Reader.
The final buffer conditions for each of the JAK1, JAK2, JAK3 and Tyk2 assays were as follows: 25 mM HEPES, pH 7.4, 10 mM MgCl2, 0.01% Triton X-100 and 1 mM DTT.
Two-μL aliquots of these were transferred to a fresh plate for a ten-fold intermediate dilution with assay buffer. Five-μL aliquots of the diluted compounds were then transferred to 20-μL of assay mixtures described in Examples C, D, E and F for a final concentration of DMSO of 2%. […] For each plate, percent of control (POC) values were calculated for each well according to the following equation:
[formula] • where • Xmax=Average Uninhibited Controls • Xmin=Average Background IC50's were estimated from the POC's using a standard 4-parameter logistic model:
[formula] • where • A=Minimum Y (Bottom Asymptote) • B=Maximum Y (Top Asymptote) • C=EC50 • D=Slope Factor • X=Compound Concentration (nM) • Y=POC
The IC50 is defined as the concentration of inhibitor at which the POC equals 50 for the fitted curve.
Compounds of Formula I were screened for their ability to inhibit Jak2 using the general enzyme inhibition assay method, in which the assay mixture contained 500 μM ATP, 10 μM Omnia® Y7 peptide (Catalog # IVGN KNZ3071C, Invitrogen Corporation, Carlsbad, Calif.) and 4 nM Jak2 in a total volume of 20 μL. Human Jak2 kinase domain comprising amino acids 808-1132 was purchased from Invitrogen Corporation, Carlsbad, Calif. (catalog # IVGN PV4210).

[2] = Table 1, 500 μM ATP, >1000 nM when >50% inhibition not observed at 1000 nM

Chain of TrkA (histidine-tagged recombinant human TrkA, cytoplasmic domain) (P04629 440-796): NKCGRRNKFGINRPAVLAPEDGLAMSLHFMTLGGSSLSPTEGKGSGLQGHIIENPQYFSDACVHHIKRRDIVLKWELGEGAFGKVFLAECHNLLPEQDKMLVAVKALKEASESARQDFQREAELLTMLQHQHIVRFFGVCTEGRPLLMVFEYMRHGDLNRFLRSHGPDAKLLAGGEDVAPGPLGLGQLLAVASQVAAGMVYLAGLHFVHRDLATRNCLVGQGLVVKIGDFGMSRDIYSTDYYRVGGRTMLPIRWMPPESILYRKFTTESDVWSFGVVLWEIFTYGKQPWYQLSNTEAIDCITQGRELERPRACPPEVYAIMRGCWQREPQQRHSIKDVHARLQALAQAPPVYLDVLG
Chain of Human Jak2 kinase domain (O60674 808-1132): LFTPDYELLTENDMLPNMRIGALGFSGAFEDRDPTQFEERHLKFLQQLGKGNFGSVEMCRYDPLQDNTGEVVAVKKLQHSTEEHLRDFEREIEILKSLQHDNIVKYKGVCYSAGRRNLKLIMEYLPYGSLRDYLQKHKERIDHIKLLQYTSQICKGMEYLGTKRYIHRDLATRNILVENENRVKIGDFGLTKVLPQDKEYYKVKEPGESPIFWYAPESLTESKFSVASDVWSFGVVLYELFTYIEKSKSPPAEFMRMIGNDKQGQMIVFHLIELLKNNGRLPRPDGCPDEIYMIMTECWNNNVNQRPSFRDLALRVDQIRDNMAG

IC50 [1] [nM]	IC50 (Human Jak2 kinase domain; [2]) [nM]	IC50 (Human Jak2 kinase domain) [nM]	Jak2 Enzyme (% inhibition at 1000 nM) (Human Jak2 kinase domain; Table 1)	Structure (SMILES)
0.7	> 1000			O=C(Nc1ccccn1)c1cnn2ccc(N3CCC[C@@H]3c3cc(F)ccc3F)nc12 [Example 2, (R)-5-(2-(2,5-difluorophenyl)pyrrolidin-1-yl)-N-(pyridin-2-yl)pyrazolo[1,5-a]pyrimidine-3-carboxamide]
1.05	> 1000			CNC(=O)c1cnn2ccc(N3CCC[C@@H]3c3cc(F)ccc3F)nc12 [Example 10, (R)-5-(2-(2,5-difluorophenyl)pyrrolidin-1-yl)-N-methylpyrazolo[1,5-a]pyrimidine-3-carboxamide]
75.9	> 1000			Cn1cc(F)cc([C@H]2CCCN2c2ccn3ncc(C(=O)N[C@H](CO)C(C)(C)C)c3n2)c1=O [Example 233, 5-((R)-2-(5-fluoro-1-methyl-2-oxo-1,2-dihydropyridin-3-yl)pyrrolidin-1-yl)-N-((S)-1-hydroxy-3,3-dimethylbutan-2-yl)pyrazolo[1,5-a]pyrimidine-3-carboxamide]
2.3	> 1000			Cc1cccnc1NC(=O)c1cnn2ccc(N3CCC[C@@H]3c3cc(F)ccc3F)nc12 [Example 3, (R)-5-(2-(2,5-difluorophenyl)pyrrolidin-1-yl)-N-(3-methylpyridin-2-yl)pyrazolo[1,5-a]pyrimidine-3-carboxamide]
1.7	> 1000			C[C@H](NC(=O)c1cnn2ccc(N3CCC[C@@H]3c3cncc(F)c3)nc12)C(F)(F)F [Example 130, 5-((R)-2-(5-fluoropyridin-3-yl)pyrrolidin-1-yl)-N-((S)-1,1,1-trifluoropropan-2-yl)pyrazolo[1,5-a]pyrimidine-3-carboxamide]
1		> 1000		COc1ccc(F)cc1[C@H]1CCCN1c1ccn2ncc(C(=O)NC[C@H](O)CO)c2n1 [Example 55, N—((S)-2,3-dihydroxypropyl)-5-((R)-2-(5-fluoro-2-methoxyphenyl)pyrrolidin-1-yl)pyrazolo[1,5-a]pyrimidine-3-carboxamide]
10.5	> 1000			Cn1cc(F)cc([C@H]2CCCN2c2ccn3ncc(C(=O)NC(C)(C)C)c3n2)c1=O [Example 226, (R)—N-tert-butyl-5-(2-(5-fluoro-1-methyl-2-oxo-1,2-dihydropyridin-3-yl)pyrrolidin-1-yl)pyrazolo[1,5-a]pyrimidine-3-carboxamide]
794	> 1000			O=C(c1cnn2ccc(N3CCC[C@@H]3c3cncc(F)c3)nc12)N1CCCCC1 [Example 137, (R)-(5-(2-(5-fluoropyridin-3-yl)pyrrolidin-1-yl)pyrazolo[1,5-a]pyrimidin-3-yl)(piperidin-1-yl)methanone]
214	> 1000			CN(C)C(=O)c1cnn2ccc(N3CCC[C@@H]3c3cc(F)ccc3F)nc12 [Example 27, (R)-5-(2-(2,5-difluorophenyl)pyrrolidin-1-yl)-N,N-dimethylpyrazolo[1,5-a]pyrimidine-3-carboxamide]
12.7	> 1000			NCCCNC(=O)c1cnn2ccc(N3CCC[C@@H]3c3cc(F)c[nH]c3=O)nc12 [Example 142, (R)—N-(3-aminopropyl)-5-(2-(5-fluoro-2-oxo-1,2-dihydropyridin-3-yl)pyrrolidin-1-yl)pyrazolo[1,5-a]pyrimidine-3-carboxamide]
4.55	> 1000			O=C(NC[C@@H](O)CO)c1cnn2ccc(N3CCC[C@@H]3c3cc(F)ccc3C(F)(F)F)nc12 [Example 63, N—((R)-2,3-dihydroxypropyl)-5-((R)-2-(5-fluoro-2-(trifluoromethyl)phenyl)pyrrolidin-1-yl)pyrazolo[1,5-a]pyrimidine-3-carboxamide]
1.2	278			O=C(N[C@H]1CC[C@H](O)CC1)c1cnn2ccc(N3CCC[C@@H]3c3cccc(F)c3)nc12 [Example 35, 5-((R)-2-(3-fluorophenyl)pyrrolidin-1-yl)-N-((trans)-4-hydroxycyclohexyl)pyrazolo[1,5-a]pyrimidine-3-carboxamide]
45	> 1000			NC(=O)c1cnn2ccc(N3CCC[C@@H]3c3cncc(F)c3)nc12 [Example 117, (R)-5-(2-(5-fluoropyridin-3-yl)pyrrolidin-1-yl)pyrazolo[1,5-a]pyrimidine-3-carboxamide]
5.8	551			CC(C)NC(=O)c1cnn2ccc(N3C[C@@H](O)C[C@@H]3c3cccc(F)c3)nc12 [Example 217, 5-((2R,4S)-2-(3-fluorophenyl)-4-hydroxypyrrolidin-1-yl)-N-isopropylpyrazolo[1,5-a]pyrimidine-3-carboxamide]
69.5	> 1000			COCCNC(=O)c1cnn2ccc(N3CCC[C@@H]3c3cc(F)cnc3C)nc12 [Example 191, (R)-5-(2-(5-fluoro-2-methylpyridin-3-yl)pyrrolidin-1-yl)-N-(2-methoxyethyl)pyrazolo[1,5-a]pyrimidine-3-carboxamide]
1.5		> 1000		NS(=O)(=O)CCNC(=O)c1cnn2ccc(N3CCC[C@@H]3c3cc(F)ccc3F)nc12 [Example 47, (R)-5-(2-(2,5-difluorophenyl)pyrrolidin-1-yl)-N-(2-sulfamoylethyl)pyrazolo[1,5-a]pyrimidine-3-carboxamide]
12.2	> 1000			C[C@H](O)[C@H](CO)NC(=O)c1cnn2ccc(N3CCC[C@@H]3c3cc(F)ccc3F)nc12 [Example 175, 5-((R)-2-(2,5-difluorophenyl)pyrrolidin-1-yl)-N-((2S,3S)-1,3-dihydroxybutan-2-yl)pyrazolo[1,5-a]pyrimidine-3-carboxamide]
8.5	> 1000			CC(C)[C@@H](CO)NC(=O)c1cnn2ccc(N3CCC[C@@H]3c3cc(F)ccc3F)nc12 [Example 179, 5-((R)-2-(2,5-difluorophenyl)pyrrolidin-1-yl)-N-((S)-1-hydroxy-3-methylbutan-2-yl)pyrazolo[1,5-a]pyrimidine-3-carboxamide]
			(16.2) %	Cc1ncc(F)cc1[C@H]1CCCN1c1ccn2ncc(C(=O)N[C@H]3CC[C@@H](O)CC3)c2n1 [Example 195, 5-((R)-2-(5-fluoro-2-methylpyridin-3-yl)pyrrolidin-1-yl)-N-((cis)-4-hydroxycyclohexyl)pyrazolo[1,5-a]pyrimidine-3-carboxamide]
21.8				COc1ncc(F)cc1[C@H]1CCCN1c1ccn2ncc(C(=O)Nc3ccn(C)n3)c2n1 [Example 241, (R)-5-(2-(5-fluoro-2-methoxypyridin-3-yl)pyrrolidin-1-yl)-N-(1-methyl-1H-pyrazol-3-yl)pyrazolo[1,5-a]pyrimidine-3-carboxamide]
38.2				COc1ncc(F)cc1[C@H]1CCCN1c1ccn2ncc(C(=O)Nc3ccn(C(C)C)n3)c2n1 [Example 244, (R)-5-(2-(5-fluoro-2-methoxypyridin-3-yl)pyrrolidin-1-yl)-N-(1-isopropyl-1H-pyrazol-3-yl)pyrazolo[1,5-a]pyrimidine-3-carboxamide]
8.9				COc1ncc(F)cc1[C@H]1CCCN1c1ccn2ncc(C(=O)Nc3cc(C4CC4)n[nH]3)c2n1 [Example 242, (R)-N-(3-cyclopropyl-1H-pyrazol-5-yl)-5-(2-(5-fluoro-2-methoxypyridin-3-yl)pyrrolidin-1-yl)pyrazolo[1,5-a]pyrimidine-3-carboxamide]
11.3				COc1ncc(F)cc1[C@H]1CCCN1c1ccn2ncc(C(=O)Nc3cc(C)n[nH]3)c2n1 [Example 240, (R)-5-(2-(5-fluoro-2-methoxypyridin-3-yl)pyrrolidin-1-yl)-N-(3-methyl-1H-pyrazol-5-yl)pyrazolo[1,5-a]pyrimidine-3-carboxamide]
			(13.8) %	O=C(N[C@H]1CC[C@@H](O)CC1)c1cnn2ccc(N3CCC[C@@H]3c3cncc(F)c3)nc12 [Example 100, 5-((R)-2-(5-fluoropyridin-3-yl)pyrrolidin-1-yl)-N-((cis)-4-hydroxycyclohexyl)pyrazolo[1,5-a]pyrimidine-3-carboxamide]
	> 1000			O=C(NCCN1CCC(O)CC1)c1cnn2ccc(N3CCC[C@@H]3c3cc(F)ccc3F)nc12 [Example 170, 5-((R)-2-(2,5-difluorophenyl)pyrrolidin-1-yl)-N-(2-(4-hydroxypiperidin-1-yl)ethyl)pyrazolo[1,5-a]pyrimidine-3-carboxamide]
